Experimental data from publication PMC9838390, “Discovery and biosynthesis of karnamicins as angiotensin converting enzyme inhibitors” (Nature Communications, 2023).

Assays:
KnmB1 = assay: Hydrogen peroxide formation assay of KnmB1 and variants; type: biochemical, L. rhizosphaerae NEAU-A2; settings: 30 °C, average of 3
Description: (§1) Hydrogen peroxide formation assay and NADPH oxidation
(§2) The hydrogen peroxide formed from KnmB1, KnmB2 and their variants were measured using the Hydrogen Peroxide Assay Kit (Beyotime Industrial Co. Ltd, Shanghai, China)4-5. 5–100 µL of enzyme reaction mixture was added to 100 µL of working reagent (S0038-1). The mixture was incubated for 30 min at 25 °C, at which time the absorbance at 560 nm was measured by NanoDrop 2000c (Fisher Scientific). […]
(§3) Spectral data for new compounds […]
(§4) Supplementary Figure 131. H2O2 generation and NADPH oxidation for KnmB2, KnmB1 and their variants. (a) Hydrogen peroxide formation of KnmB2 and variants. […]
(b) Hydrogen peroxide formation of KnmB1 and variants. Reaction conditions: 100 µL system containing 50 mM Tris-HCl buffer (pH 7.5), 1 mM NADPH, 16 μM KnmB2, 17 μM KnmB1 or variants, 0.1 mM compound 24,1 mM SAM, and 2 […]
(§5) (1 picture or pasted object on this page, not shown here) […]
μM KnmF at 30 °C for 3h. (c) Hydrogen peroxide formation of KnmB1 and variants.
Reaction conditions: 100µL system containing 50 mM Tris-HCl buffer (pH 7.5), 0.3 mM NADPH, and 6 μM KnmB1 or variants, or 0.1 mM 24 at 30 °C for 30 min. […]
2 μM KnmB2 or variants, or 0.1 mM substrate 24/32. […]
Source data are provided as a Source Data file. […]

KnmB2 = assay: Hydrogen peroxide formation assay of KnmB2 and variants; type: biochemical, L. rhizosphaerae NEAU-A2
Description: as §1, §2, §3, §4, §5
H2O2 generation for KnmB2 and variants in the presence 24 or 32. Reaction conditions (h-j) for KnmB2 and their variants: 50 mM Tris-HCl buffer (pH 7.5), 0.15 mM NADPH, 2 μM KnmB2 or variants, or 0.1 mM substrate 24/32. Values are the means ± SD of n = 3 independent experiments, except for KnmB2+24 (T = 40 min), KnmB2-N219D+24 (T = 4 min), KnmB2-Y215F+24 (T= 1 min and 3 min) in i and j, and KnmB2+32 (T= 8 min) in j (n = 2). Source data are provided as a Source Data file. […]

In the case of CC(C)CCCCc1nc(-c2cc(O)cc(C(N)=O)n2)cs1 [Compound 24], the “hydrogen peroxide formation of KnmB1 (absorbance UV λ=560 nm), average value” (KnmB1; Fig. S131b, 1 mM NADPH, 17 μM KnmB1, 0.1 mM compound, 3 h) is reported as 0.5214, the “hydrogen peroxide formation of KnmB1 (absorbance UV λ=560 nm), average value” (KnmB1; Fig. S131c, 0.3 mM NADPH, 6 μM KnmB1, 0.1 mM compound, 30 min) is reported as 1.0442 and the “hydrogen peroxide formation of KnmB2 (absorbance UV λ=560 nm), average value” (KnmB2; Fig. S131a, 1 mM NADPH, 16 μM KnmB2, 0.1 mM compound, 30 °C, 3 h, average of 3) is reported as 0.5988. The “H2O2 generation, average value” (KnmB2; KnmB2+24, Time 0) was 0.0000 µM, the “H2O2 generation, average value” (KnmB2; KnmB2+24, Time 1) was 7.6218 µM and the “H2O2 generation, average value” (KnmB2; KnmB2+24, Time 2) was 12.4635 µM. The “H2O2 generation, average value” (KnmB2; KnmB2+24, Time 3) was 16.9204 µM, the “H2O2 generation, average value” (KnmB2; KnmB2+24, Time 4) was 22.1791 µM and the “H2O2 generation, average value” (KnmB2; KnmB2+24, Time 5) was 26.8239 µM. For the same compound, the “H2O2 generation, average value” (KnmB2; KnmB2+24, Time 8) was 38.8438 µM, the “H2O2 generation, average value” (KnmB2; KnmB2+24, Time 10) was 44.6588 µM and the “H2O2 generation, average value” (KnmB2; KnmB2+24, Time 15) was 53.6376 µM. The “H2O2 generation, average value” (KnmB2; KnmB2+24, Time 20) was 56.0339 µM, the “H2O2 generation, average value” (KnmB2; KnmB2+24, Time 30) was 65.5374 µM and the “H2O2 generation, average value” (KnmB2; KnmB2+24, Time 40) was 57.4770 µM. For the same compound, the “H2O2 generation, average value” (KnmB2; KnmB2+24, Time 60) was 60.9452 µM, the “H2O2 generation, average value” (KnmB2; KnmB2-N219D+24, Time 0) was 0.0000 µM and the “H2O2 generation, average value” (KnmB2; KnmB2-N219D+24, Time 2) was 1.0964 µM. For the same compound, the “H2O2 generation, average value” (KnmB2; KnmB2-N219D+24, Time 4) was 1.8460 µM, the “H2O2 generation, average value” (KnmB2; KnmB2-N219D+24, Time 5) was 1.9569 µM and the “H2O2 generation, average value” (KnmB2; KnmB2-N219D+24, Time 8) was 2.8926 µM. For the same compound, the “H2O2 generation, average value” (KnmB2; KnmB2-N219D+24, Time 10) was 3.8614 µM, the “H2O2 generation, average value” (KnmB2; KnmB2-N219D+24, Time 15) was 5.8462 µM and the “H2O2 generation, average value” (KnmB2; KnmB2-N219D+24, Time 20) was 7.3014 µM. For the same compound, the “H2O2 generation, average value” (KnmB2; KnmB2-N219D+24, Time 30) was 11.0201 µM, the “H2O2 generation, average value” (KnmB2; KnmB2-N219D+24, Time 40) was 14.2037 µM and the “H2O2 generation, average value” (KnmB2; KnmB2-N219D+24, Time 60) was 17.9462 µM. The “H2O2 generation, average value” (KnmB2; KnmB2-Y215F+24, Time 0) was 0.0000 µM, the “H2O2 generation, average value” (KnmB2; KnmB2-Y215F+24, Time 1) was 2.6203 µM and the “H2O2 generation, average value” (KnmB2; KnmB2-Y215F+24, Time 2) was 4.3765 µM. The “H2O2 generation, average value” (KnmB2; KnmB2-Y215F+24, Time 3) was 4.8322 µM, the “H2O2 generation, average value” (KnmB2; KnmB2-Y215F+24, Time 4) was 7.3420 µM and the “H2O2 generation, average value” (KnmB2; KnmB2-Y215F+24, Time 5) was 8.5825 µM. For the same compound, the “H2O2 generation, average value” (KnmB2; KnmB2-Y215F+24, Time 8) was 12.4110 µM, the “H2O2 generation, average value” (KnmB2; KnmB2-Y215F+24, Time 10) was 14.9169 µM and the “H2O2 generation, average value” (KnmB2; KnmB2-Y215F+24, Time 15) was 20.6983 µM. The “H2O2 generation, average value” (KnmB2; KnmB2-Y215F+24, Time 20) was 27.2428 µM, the “H2O2 generation, average value” (KnmB2; KnmB2-Y215F+24, Time 30) was 36.5225 µM and the “H2O2 generation, average value” (KnmB2; KnmB2-Y215F+24, Time 40) was 40.7285 µM. For the same compound, the “H2O2 generation, average value” (KnmB2; KnmB2-Y215F+24, Time 60) was 52.7400 µM.
